Our source for the % of control, % of inhibition and dTM values is ChEMBL document CHEMBL5465560, “Selectivity Literature for EUbOPEN Chemogenomic Library” (2024).

Molecules are shown by their SMILES.

The target in test [1] is Serine/threonine-protein kinase pim-2 (Homo sapiens, UniProt Q9P1W9). Conditions: at 10 µM.
Test [2] addresses T1, cGMP-dependent protein kinase 1 (Homo sapiens) (UniProt Q13976).
T1 sequence (whole entry): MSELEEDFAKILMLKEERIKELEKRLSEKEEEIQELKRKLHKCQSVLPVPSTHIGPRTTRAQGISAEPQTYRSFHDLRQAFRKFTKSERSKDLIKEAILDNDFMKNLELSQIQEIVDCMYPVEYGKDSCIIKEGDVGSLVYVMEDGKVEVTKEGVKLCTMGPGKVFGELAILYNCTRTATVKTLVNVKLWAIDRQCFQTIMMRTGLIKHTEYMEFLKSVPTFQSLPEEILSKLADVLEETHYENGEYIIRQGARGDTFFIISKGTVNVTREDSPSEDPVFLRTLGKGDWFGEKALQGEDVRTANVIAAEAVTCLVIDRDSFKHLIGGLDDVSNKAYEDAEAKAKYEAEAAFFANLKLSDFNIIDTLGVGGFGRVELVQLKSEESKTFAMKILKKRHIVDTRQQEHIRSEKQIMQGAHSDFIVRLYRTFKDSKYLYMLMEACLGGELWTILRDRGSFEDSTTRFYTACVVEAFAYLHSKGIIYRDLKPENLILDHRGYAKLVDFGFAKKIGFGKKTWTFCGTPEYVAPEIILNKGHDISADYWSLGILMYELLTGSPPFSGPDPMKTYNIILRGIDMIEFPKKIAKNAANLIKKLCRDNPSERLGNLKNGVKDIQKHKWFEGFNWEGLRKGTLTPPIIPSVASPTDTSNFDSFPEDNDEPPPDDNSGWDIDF
The experiment in a line: Selectivity interaction (SelectScreen profiling (Invitrogen)) EUB0000607a PRKG1. Conditions: at 2 µM.

Test [3] addresses Tyrosine-protein kinase Lyn (Homo sapiens, UniProt P07948). The experiment in a line: Selectivity interaction (Kinase screening (Upstate/Millipore)) EUB0000604a LYN.
The target of test [4] is Protein kinase C eta type (Homo sapiens) (UniProt P24723). The experiment in a line: Selectivity interaction (Kinase screening (Nanosyn)) EUB0000604a PRKCH.
Sequence of Protein kinase C eta type (Homo sapiens) (P24723 whole entry): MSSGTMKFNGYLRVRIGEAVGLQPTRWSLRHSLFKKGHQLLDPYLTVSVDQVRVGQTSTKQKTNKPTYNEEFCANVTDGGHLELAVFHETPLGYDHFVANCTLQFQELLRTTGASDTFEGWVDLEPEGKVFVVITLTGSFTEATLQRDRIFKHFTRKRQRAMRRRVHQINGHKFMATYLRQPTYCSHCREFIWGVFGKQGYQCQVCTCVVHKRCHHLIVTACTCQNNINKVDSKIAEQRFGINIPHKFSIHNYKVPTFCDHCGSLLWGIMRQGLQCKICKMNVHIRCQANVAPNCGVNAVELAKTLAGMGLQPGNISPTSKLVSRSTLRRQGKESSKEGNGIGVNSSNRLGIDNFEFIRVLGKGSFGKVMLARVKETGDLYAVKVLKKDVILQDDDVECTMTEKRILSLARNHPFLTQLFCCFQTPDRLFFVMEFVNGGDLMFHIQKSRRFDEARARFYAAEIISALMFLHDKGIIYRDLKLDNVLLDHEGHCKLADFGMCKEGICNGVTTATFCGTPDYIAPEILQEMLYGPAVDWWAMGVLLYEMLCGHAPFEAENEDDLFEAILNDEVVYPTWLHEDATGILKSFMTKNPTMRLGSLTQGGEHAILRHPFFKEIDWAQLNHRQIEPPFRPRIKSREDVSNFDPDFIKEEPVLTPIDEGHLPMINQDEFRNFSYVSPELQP
Test [5] concerns the target Serine/threonine-protein kinase B-raf (Homo sapiens) (UniProt P15056). As to the kind of experiment: Selectivity interaction (Kinase panel (Invitrogen)) EUB0000639a BRAF. Conditions: at 200 nM.
Test [6] concerns the target Cyclin-dependent kinase 11B (Homo sapiens) (UniProt P21127). As to the kind of experiment: Selectivity interaction (KinomeScan (DiscoverX)) EUB0000045b CDK11B.
The target of test [7] is Receptor tyrosine-protein kinase erbB-3 (Homo sapiens) (UniProt P21860). The experiment in a line: Selectivity interaction (KinomeScan (DiscoverX)) EUB0000655a ERBB3. Conditions: at 10 µM.
Sequence of Receptor tyrosine-protein kinase erbB-3 (Homo sapiens) (P21860 whole entry): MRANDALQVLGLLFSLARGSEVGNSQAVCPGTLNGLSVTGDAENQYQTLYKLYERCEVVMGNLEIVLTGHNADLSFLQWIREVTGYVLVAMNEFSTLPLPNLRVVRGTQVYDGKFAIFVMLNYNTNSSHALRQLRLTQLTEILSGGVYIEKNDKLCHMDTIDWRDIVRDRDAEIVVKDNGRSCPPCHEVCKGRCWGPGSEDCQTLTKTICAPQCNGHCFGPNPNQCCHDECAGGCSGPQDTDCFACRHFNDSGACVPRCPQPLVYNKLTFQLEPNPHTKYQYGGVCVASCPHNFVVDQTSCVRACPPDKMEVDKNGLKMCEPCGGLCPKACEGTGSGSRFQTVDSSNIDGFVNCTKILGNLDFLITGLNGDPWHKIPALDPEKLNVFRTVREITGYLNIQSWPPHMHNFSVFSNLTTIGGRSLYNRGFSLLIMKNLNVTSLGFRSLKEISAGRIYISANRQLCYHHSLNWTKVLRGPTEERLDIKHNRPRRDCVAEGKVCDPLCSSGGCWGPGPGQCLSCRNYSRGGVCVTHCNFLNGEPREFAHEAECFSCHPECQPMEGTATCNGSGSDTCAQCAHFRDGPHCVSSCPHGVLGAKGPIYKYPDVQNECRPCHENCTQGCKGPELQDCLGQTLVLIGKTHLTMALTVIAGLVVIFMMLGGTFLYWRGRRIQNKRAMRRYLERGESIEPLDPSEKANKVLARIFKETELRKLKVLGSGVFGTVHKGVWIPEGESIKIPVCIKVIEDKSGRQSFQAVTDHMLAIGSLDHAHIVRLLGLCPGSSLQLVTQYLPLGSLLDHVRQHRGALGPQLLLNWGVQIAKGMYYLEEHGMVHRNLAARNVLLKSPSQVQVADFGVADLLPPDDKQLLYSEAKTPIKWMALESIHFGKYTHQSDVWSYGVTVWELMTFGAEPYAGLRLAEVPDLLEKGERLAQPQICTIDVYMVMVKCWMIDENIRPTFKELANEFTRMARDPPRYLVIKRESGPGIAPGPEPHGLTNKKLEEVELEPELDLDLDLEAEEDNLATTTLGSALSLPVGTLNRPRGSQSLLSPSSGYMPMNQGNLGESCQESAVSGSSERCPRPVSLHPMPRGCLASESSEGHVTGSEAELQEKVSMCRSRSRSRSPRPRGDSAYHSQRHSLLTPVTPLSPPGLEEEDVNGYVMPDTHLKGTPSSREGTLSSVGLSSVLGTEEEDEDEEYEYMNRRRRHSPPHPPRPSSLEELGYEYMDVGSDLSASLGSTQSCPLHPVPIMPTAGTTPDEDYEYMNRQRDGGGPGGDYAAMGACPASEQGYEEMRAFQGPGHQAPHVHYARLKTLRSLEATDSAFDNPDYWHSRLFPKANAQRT
In test [8] the target is T2, Serine/threonine-protein kinase LATS1 (Homo sapiens) (UniProt O95835).
T2 sequence (whole entry): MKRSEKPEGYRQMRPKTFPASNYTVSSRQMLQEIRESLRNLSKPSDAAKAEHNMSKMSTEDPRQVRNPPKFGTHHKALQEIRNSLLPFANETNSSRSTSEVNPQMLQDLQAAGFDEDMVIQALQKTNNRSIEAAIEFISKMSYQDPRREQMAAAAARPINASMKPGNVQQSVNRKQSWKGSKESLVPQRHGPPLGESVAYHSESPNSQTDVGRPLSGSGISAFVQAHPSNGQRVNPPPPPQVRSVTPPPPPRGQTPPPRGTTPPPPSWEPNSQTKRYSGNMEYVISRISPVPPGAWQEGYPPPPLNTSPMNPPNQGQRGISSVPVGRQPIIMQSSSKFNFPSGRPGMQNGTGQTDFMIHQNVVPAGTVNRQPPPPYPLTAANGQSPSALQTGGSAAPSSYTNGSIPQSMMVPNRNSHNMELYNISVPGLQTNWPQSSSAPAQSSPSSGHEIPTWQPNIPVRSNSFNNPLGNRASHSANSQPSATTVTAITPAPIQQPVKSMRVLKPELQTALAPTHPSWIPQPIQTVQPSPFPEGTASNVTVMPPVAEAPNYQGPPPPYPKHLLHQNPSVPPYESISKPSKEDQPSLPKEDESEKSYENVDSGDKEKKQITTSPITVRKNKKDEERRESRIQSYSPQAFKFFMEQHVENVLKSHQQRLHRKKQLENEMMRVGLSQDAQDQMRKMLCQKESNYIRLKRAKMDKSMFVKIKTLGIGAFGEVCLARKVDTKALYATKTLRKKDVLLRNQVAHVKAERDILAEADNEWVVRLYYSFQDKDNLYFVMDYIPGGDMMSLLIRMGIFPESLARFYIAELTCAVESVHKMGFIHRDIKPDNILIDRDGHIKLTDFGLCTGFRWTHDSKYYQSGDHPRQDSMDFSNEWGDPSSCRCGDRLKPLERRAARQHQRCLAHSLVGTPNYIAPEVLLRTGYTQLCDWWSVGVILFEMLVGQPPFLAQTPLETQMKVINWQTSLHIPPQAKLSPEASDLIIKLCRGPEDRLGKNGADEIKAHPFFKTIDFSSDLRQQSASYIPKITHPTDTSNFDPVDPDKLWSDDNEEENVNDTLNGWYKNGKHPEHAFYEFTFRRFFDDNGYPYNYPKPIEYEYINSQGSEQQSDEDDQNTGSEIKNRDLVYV
The experiment in a line: Selectivity interaction (KinomeScan (DiscoverX)) EUB0000092b LATS1. Conditions: at 10 µM.

Test [9] concerns the target Proto-oncogene tyrosine-protein kinase Src (Homo sapiens, UniProt P12931). As to the kind of experiment: Selectivity interaction (Kinase panel (DSF assay)) EUB0001558a SRC. (In DSF a fluorescence change marks the thermal transition of the protein.)
Test [10] concerns the target Cyclin-dependent kinase 2 (Homo sapiens, UniProt P24941). As to the kind of experiment: Selectivity interaction (KinomeScan (DiscoverX)) EUB0001079a CDK2. Conditions: at 1 µM.
The target in test [11] is MAP kinase-activated protein kinase 2 (Homo sapiens, UniProt P49137). The experiment in a line: Selectivity interaction (KinomeScan (DiscoverX)) EUB0001079a MAPKAPK2. Conditions: at 1 µM.
Sequence of MAP kinase-activated protein kinase 2 (P49137 whole entry, looked up): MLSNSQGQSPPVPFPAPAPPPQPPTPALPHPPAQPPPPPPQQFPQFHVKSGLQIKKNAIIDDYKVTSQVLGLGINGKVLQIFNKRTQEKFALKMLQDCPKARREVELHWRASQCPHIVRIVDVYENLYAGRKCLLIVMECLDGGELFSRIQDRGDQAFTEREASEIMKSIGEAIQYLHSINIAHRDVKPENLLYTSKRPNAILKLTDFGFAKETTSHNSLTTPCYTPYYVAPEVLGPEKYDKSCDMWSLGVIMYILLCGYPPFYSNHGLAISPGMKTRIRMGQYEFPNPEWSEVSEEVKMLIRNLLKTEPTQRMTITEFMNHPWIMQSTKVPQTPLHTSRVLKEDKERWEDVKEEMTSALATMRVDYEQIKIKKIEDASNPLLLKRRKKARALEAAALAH

Sequence of Cyclin-dependent kinase 11B (Homo sapiens) (P21127 whole entry): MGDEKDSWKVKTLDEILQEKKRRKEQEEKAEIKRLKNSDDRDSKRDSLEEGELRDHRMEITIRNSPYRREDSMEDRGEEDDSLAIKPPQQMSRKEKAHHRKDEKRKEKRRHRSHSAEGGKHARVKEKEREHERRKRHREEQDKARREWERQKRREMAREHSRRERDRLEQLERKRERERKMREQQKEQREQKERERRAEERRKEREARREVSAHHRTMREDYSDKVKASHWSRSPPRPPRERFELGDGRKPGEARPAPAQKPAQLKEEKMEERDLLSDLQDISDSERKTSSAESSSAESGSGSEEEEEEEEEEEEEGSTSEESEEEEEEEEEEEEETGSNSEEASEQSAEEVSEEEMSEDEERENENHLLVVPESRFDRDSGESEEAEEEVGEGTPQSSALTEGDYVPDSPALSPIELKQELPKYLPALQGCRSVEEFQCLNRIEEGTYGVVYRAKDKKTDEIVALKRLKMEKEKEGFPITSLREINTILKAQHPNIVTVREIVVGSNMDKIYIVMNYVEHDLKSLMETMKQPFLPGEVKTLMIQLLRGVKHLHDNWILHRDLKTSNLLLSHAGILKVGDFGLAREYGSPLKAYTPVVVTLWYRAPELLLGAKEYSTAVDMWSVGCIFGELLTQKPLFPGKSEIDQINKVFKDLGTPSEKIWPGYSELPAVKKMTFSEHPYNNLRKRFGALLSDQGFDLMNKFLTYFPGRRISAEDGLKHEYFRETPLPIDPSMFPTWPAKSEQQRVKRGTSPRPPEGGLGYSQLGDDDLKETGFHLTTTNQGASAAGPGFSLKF
Sequence of Tyrosine-protein kinase Lyn (P07948 2-512 limits assumed): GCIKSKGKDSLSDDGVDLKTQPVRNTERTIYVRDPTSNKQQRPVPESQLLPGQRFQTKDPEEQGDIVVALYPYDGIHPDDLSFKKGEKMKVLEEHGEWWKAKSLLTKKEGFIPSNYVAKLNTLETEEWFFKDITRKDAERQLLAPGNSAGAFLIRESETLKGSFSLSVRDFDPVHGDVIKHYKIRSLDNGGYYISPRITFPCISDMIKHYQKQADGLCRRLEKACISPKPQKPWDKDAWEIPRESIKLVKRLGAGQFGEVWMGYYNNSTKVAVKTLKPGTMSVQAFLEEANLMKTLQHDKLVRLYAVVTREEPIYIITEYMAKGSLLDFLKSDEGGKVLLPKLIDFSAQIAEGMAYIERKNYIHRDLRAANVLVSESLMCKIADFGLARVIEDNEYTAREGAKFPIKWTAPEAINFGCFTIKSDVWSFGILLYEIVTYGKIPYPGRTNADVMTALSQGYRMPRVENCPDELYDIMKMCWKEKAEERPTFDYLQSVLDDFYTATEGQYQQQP
Sequence of Proto-oncogene tyrosine-protein kinase Src (P12931 2-536 limits assumed): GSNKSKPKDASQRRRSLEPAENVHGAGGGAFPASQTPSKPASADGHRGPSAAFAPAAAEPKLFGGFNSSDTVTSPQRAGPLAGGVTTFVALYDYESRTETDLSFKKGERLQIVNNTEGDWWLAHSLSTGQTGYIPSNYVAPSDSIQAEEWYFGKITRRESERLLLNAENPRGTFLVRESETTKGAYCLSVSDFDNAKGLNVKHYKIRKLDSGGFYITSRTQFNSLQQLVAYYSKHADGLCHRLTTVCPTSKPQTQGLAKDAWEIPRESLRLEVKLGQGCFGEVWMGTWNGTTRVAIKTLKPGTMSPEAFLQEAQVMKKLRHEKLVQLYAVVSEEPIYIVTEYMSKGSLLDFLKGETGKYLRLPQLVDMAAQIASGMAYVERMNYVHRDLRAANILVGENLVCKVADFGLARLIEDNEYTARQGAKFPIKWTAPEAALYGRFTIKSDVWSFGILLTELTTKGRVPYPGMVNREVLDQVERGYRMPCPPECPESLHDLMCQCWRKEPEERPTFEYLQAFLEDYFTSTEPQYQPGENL
Sequence of Serine/threonine-protein kinase B-raf (Homo sapiens) (P15056 whole entry): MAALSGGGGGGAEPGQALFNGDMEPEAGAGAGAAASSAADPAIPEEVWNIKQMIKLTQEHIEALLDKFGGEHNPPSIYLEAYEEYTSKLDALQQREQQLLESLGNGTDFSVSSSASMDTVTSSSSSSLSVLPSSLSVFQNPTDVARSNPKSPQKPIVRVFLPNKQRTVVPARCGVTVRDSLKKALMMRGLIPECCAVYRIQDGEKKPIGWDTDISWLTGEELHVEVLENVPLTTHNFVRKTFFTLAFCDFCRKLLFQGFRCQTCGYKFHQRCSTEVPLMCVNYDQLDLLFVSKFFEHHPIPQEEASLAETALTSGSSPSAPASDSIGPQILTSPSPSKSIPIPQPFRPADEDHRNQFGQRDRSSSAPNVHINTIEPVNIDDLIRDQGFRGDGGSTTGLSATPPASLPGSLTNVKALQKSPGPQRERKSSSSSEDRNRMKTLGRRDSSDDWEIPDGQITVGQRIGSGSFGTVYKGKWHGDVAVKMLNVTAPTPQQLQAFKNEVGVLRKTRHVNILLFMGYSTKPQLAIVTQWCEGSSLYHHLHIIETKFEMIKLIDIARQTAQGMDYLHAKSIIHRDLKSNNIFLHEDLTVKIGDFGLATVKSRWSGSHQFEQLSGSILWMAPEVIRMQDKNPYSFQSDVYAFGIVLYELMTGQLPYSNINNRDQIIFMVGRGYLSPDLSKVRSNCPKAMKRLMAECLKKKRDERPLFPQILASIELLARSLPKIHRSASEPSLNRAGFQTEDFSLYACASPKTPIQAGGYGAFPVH

As to `CCN(CC)CCCCNc1ncc2cc(-c3cc(OC)cc(OC)c3)c(NC(=O)NC(C)(C)C)nc2n1`, the % of control in test [1] is 100%.

`CNC(=O)Nc1ccc(-c2nc(N3CC4CCC(C3)O4)c3cnn(C4CCC5(CC4)OCCO5)c3n2)cc1` registered a % of inhibition in test [2] of 1%.

With `Cc1cnc(Nc2ccc(F)cc2Cl)nc1-c1c[nH]c(C(=O)N[C@H](CO)c2cccc(Cl)c2)c1`, the % of inhibition in [3] is 7%; in test [4], 2%.

`CC[C@@H]1[C@H](F)C(=O)N[C@@H]1COc1nccc2cc(C(N)=O)c(OC)cc12` [ZIMLOVISERTIB] displayed a % of inhibition in [5] of 28.7%.

Take `C=CC(=O)Nc1cc(-n2c(=O)ccc3cnc4ccc(-c5ccc(NS(C)(=O)=O)cc5)cc4c32)ccc1C`: the results for the % of control in test [6] (at 1 µM) and in test [6] (at 10 µM) were 100% and 99%, respectively.

Molecule `CN(C)CCOc1ccc(-c2nc(-c3ccncc3)c(-c3ccc4c(c3)CC/C4=N\O)[nH]2)cc1` showed a % of control in test [7] of 0.7%.

In turn, `CCC(=O)N1CCN(c2ccc(-n3c(=O)ccc4cnc5ccc(-c6cnc7ccccc7c6)cc5c43)cc2C(F)(F)F)CC1` gave a % of control in test [8] of 100%.

`CC(C)(O)[C@H](F)CN1Cc2cc(NC(=O)c3cnn4cccnc34)c(N3CCOCC3)cc2C1=O` came in with a dTM in [9] of 2 K.

For the molecule `Nc1cnc(N2CCc3cc(S(=O)(=O)Nc4c(F)cc(Cl)cc4F)cc(N4CCCC4=O)c32)nc1` [TP-020n], the % of control in [10] and in [11] was 100% in each case.
